# Experimental data: ChEMBL document CHEMBL1201862, “PubChem BioAssay data set” (2004)
#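 Five compound concentrations were applied to cells in 96-well plates for 48 hours; endpoints were derived by simple linear interpolation of the resulting dose-response curve. Here, GI50 denotes the concentration required for 50% inhibition of growth.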 Activity calls are given as the source filed them. Rule as the data show it: active = GI50 up to about 1.1 µM and inactive = higher. *1 amine or outer side, *2 acyl side, *3 side chain or, on linkers, in order; H or OH if unused. Where a SMILES comes first, the peptide text is derived from it. [ ]: non-standard residue; d: D form. The star is where a group is joined. ξ: configuration not given here. NMeY = CN[C@@H](Cc1ccc(O)cc1)C(=O)O; Ethylenediamine = C(CN[*:2])N[*:1]; ξNMeL = CNC(CC(C)C)C(=O)O; Cbz = O=C(OCc1ccccc1)*; Lac = C[C@H](O)C(=O)O; ξA = CC(N)C(=O)O
# Experiments:
# Experiment in all cases: inhibition of tumour cell growth, NCI panel, 48 h
# UO-31 = system: UO-31
# U-251 = system: U-251
# MCF7 = system: MCF7
# A549 = system: A549
# HCT-15 = system: HCT-15
# NCI-H460 = system: NCI-H460
# K562 = system: K562
# RPMI-8226 = system: RPMI-8226
# MDA-MB-231 = system: MDA-MB-231
# LOX IMVI = system: LOX IMVI
# SNB-75 = system: SNB-75
# SR = system: SR
# KM-20L2 = system: KM-20L2
# OVCAR-4 = system: OVCAR-4
# NCI-H23 = system: NCI-H23
# BT-549 = system: BT-549
# COLO 205 = system: COLO 205
# MOLT-4 = system: MOLT-4
# HOP-62 = system: HOP-62
# SK-MEL-28 = system: SK-MEL-28
# SNB-19 = system: SNB-19
# NCI/ADR-RES = system: NCI/ADR-RES
# SK-MEL-5 = system: SK-MEL-5
# DU-145 = system: DU-145
# PC-3 = system: PC-3
# HCT-116 = system: HCT-116
# HT-29 = system: HT-29
# EKVX = system: EKVX
# IGROV-1 = system: IGROV-1
# HOP-92 = system: HOP-92
# M14 = system: M14
# KM12 = system: KM12
# SW-620 = system: SW-620
# UACC-257 = system: UACC-257
# DMS-114 = system: DMS-114
# HCC 2998 = system: HCC 2998
# SF-539 = system: SF-539
# NCI-H522 = system: NCI-H522
# Hs-578T = system: Hs-578T
# SF-268 = system: SF-268
# UACC-62 = system: UACC-62
# SF-295 = system: SF-295
# HL-60 = system: HL-60
# SK-OV-3 = system: SK-OV-3
# 786-0 = system: 786-0
# DLD-1 = system: DLD-1
# OVCAR-3 = system: OVCAR-3
# ACHN = system: ACHN
# NCI-H226 = system: NCI-H226
# OVCAR-5 = system: OVCAR-5
# MDA-MB-435 = system: MDA-MB-435
# CCRF-CEM = system: CCRF-CEM
# A498 = system: A498
# T47D = system: T47D
# SK-MEL-2 = system: SK-MEL-2
# SN12C = system: SN12C
# CAKI-1 = system: CAKI-1
# OVCAR-8 = system: OVCAR-8
# Malme-3M = system: Malme-3M
# TK-10 = system: TK-10
# MDA-N = system: MDA-N
# RXF 393 = system: RXF 393
smiles,measurement,setting,value
CCOc1ccc(NCc2cc(OC)c(OC)c(OC)c2)cc1,GI50,UO-31,9.02 µM (inactive)
same,GI50,U-251,0.536 µM (active)
same,GI50,MCF7,0.455 µM (active)
same,GI50,A549,1.68 µM (inactive)
same,GI50,HCT-15,0.303 µM
same,GI50,NCI-H460,0.614 µM (active)
same,GI50,K562,0.269 µM (active)
same,GI50,RPMI-8226,1.58 µM (inactive)
same,GI50,MDA-MB-231,1.57 µM (inactive)
same,GI50,LOX IMVI,0.918 µM (active)
same,GI50,SNB-75,1.96 µM (inactive)
same,GI50,SR,0.288 µM (active)
same,GI50,KM-20L2,475 nM (active)
same,GI50,OVCAR-4,40.1 µM (inactive)
same,GI50,NCI-H23,1.96 µM (inactive)
same,GI50,BT-549,0.125 µM (active)
same,GI50,COLO 205,0.495 µM (active)
same,GI50,MOLT-4,0.822 µM (active)
same,GI50,HOP-62,0.675 µM (active)
same,GI50,SK-MEL-28,2.99 µM (inactive)
same,GI50,SNB-19,2.88 µM (inactive)
same,GI50,NCI/ADR-RES,0.359 µM (active)
same,GI50,SK-MEL-5,0.578 µM (active)
same,GI50,DU-145,3.15 µM (inactive)
same,GI50,PC-3,1.96 µM (inactive)
same,GI50,HCT-116,0.533 µM (active)
same,GI50,HT-29,0.407 µM (active)
same,GI50,EKVX,17.5 µM (inactive)
same,GI50,IGROV-1,2.4 µM (inactive)
same,GI50,HOP-92,6.04 µM (inactive)
same,GI50,M14,0.425 µM (active)
same,GI50,KM12,0.319 µM (active)
same,GI50,SW-620,0.334 µM (active)
same,GI50,UACC-257,19.7 µM (inactive)
same,GI50,DMS-114,287 nM (active)
same,GI50,HCC 2998,0.9 µM (active)
same,GI50,SF-539,0.562 µM (active)
same,GI50,NCI-H522,0.452 µM (active)
same,GI50,Hs-578T,1.11 µM (active)
same,GI50,SF-268,3.4 µM (inactive)
same,GI50,UACC-62,0.481 µM (active)
same,GI50,SF-295,0.417 µM (active)
same,GI50,HL-60,0.463 µM (active)
same,GI50,SK-OV-3,1.17 µM (inactive)
same,GI50,786-0,1.32 µM (inactive)
same,GI50,DLD-1,1.11 µM (active)
same,GI50,OVCAR-3,0.388 µM (active)
same,GI50,ACHN,6.15 µM (inactive)
same,GI50,NCI-H226,11.3 µM (inactive)
COc1ccc(C[C@@H](C(=O)NCCNC(=O)C(CC(C)C)N(C)C(=O)[C@@H]2CCCN2C(=O)[C@H](C)O)N(C)C(=O)[C@@H]2CCCN2C(=O)[C@H](CC(C)C)NC(=O)C(C)NC(=O)OCc2ccccc2)cc1 (stereo partly drawn) (Cbz-[ξA]LP[NMeY](Me)-{Ethylenediamine-ξNMeL-Pro-Lac}),GI50,UO-31,> 100 µM (inactive)
same,GI50,U-251,> 100 µM (inactive)
same,GI50,MCF7,43.9 µM (inactive)
same,GI50,A549,> 100 µM (inactive)
same,GI50,OVCAR-5,> 100 µM (inactive)
same,GI50,HCT-15,82 µM
same,GI50,NCI-H460,> 100 µM (inactive)
same,GI50,MDA-MB-435,54.2 µM (inactive)
same,GI50,K562,40.6 µM (inactive)
same,GI50,CCRF-CEM,34.6 µM (inactive)
same,GI50,RPMI-8226,33.9 µM (inactive)
same,GI50,MDA-MB-231,91.4 µM (inactive)
same,GI50,LOX IMVI,37 µM (inactive)
same,GI50,SNB-75,89.5 µM (inactive)
same,GI50,SR,54.3 µM (inactive)
same,GI50,OVCAR-4,> 100 µM (inactive)
same,GI50,NCI-H23,> 100 µM (inactive)
same,GI50,BT-549,> 100 µM (inactive)
same,GI50,COLO 205,77.6 µM (inactive)
same,GI50,MOLT-4,29 µM (inactive)
same,GI50,HOP-62,> 100 µM (inactive)
same,GI50,A498,> 100 µM (inactive)
same,GI50,SK-MEL-28,> 100 µM (inactive)
same,GI50,T47D,72.6 µM (inactive)
same,GI50,SK-MEL-2,> 100 µM (inactive)
same,GI50,SN12C,> 100 µM (inactive)
same,GI50,SNB-19,> 100 µM (inactive)
same,GI50,NCI/ADR-RES,> 100 µM (inactive)
same,GI50,SK-MEL-5,33.5 µM (inactive)
same,GI50,DU-145,> 100 µM (inactive)
same,GI50,PC-3,> 100 µM (inactive)
same,GI50,HCT-116,> 100 µM (inactive)
same,GI50,HT-29,72.3 µM (inactive)
same,GI50,EKVX,> 100 µM (inactive)
same,GI50,IGROV-1,> 100 µM (inactive)
same,GI50,HOP-92,68.9 µM (inactive)
same,GI50,M14,> 100 µM (inactive)
same,GI50,KM12,> 100 µM (inactive)
same,GI50,SW-620,> 100 µM (inactive)
same,GI50,UACC-257,46.1 µM (inactive)
same,GI50,HCC 2998,> 100 µM (inactive)
same,GI50,CAKI-1,> 100 µM (inactive)
same,GI50,SF-539,> 100 µM (inactive)
same,GI50,NCI-H522,> 100 µM (inactive)
same,GI50,Hs-578T,12.9 µM (inactive)
same,GI50,OVCAR-8,> 100 µM (inactive)
same,GI50,Malme-3M,> 100 µM (inactive)
same,GI50,SF-268,> 100 µM (inactive)
same,GI50,TK-10,> 100 µM (inactive)
same,GI50,UACC-62,96.2 µM (inactive)
same,GI50,MDA-N,66.8 µM (inactive)
same,GI50,SF-295,> 100 µM (inactive)
same,GI50,HL-60,38.4 µM (inactive)
same,GI50,SK-OV-3,> 100 µM (inactive)
same,GI50,786-0,> 100 µM (inactive)
same,GI50,RXF 393,97.7 µM (inactive)
same,GI50,OVCAR-3,> 100 µM (inactive)
same,GI50,ACHN,> 100 µM (inactive)
same,GI50,NCI-H226,> 100 µM (inactive)
